These molecules were tested against T1, Phenylethanolamine N-methyltransferase (Bos taurus, UniProt P10938) (assay: Inhibitory activity against bovine adrenal norepinephrine N-methyl-transferase was determined).
T1 sequence (P10938 whole entry): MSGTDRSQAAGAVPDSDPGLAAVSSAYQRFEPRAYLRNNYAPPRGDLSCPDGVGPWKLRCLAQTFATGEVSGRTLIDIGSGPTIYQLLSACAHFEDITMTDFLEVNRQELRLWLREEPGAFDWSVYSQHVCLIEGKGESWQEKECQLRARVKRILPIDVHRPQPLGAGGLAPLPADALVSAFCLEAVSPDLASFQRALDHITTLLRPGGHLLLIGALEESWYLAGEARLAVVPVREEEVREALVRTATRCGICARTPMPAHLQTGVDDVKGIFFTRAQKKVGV

Row | Compound | Ki [µM]
1 | N[C@H](CO)CC1CCCCC1 | 125
2 | N[C@@H](CO)Cc1ccccc1 | 379
3 | N[C@@H](CO)CC1CCCCC1 | 33
4 | N[C@@H](CO)c1ccccc1 | 88
5 | CCC(N)Cc1ccccc1 (stereo not given) | > 1000
6 | NC(CC1CCCCC1)c1ccccc1 (stereo not given) | > 1000
7 | CCCC(N)c1ccccc1 (stereo not given) | > 1000
8 | NC(Cc1ccccc1)Cc1ccccc1 | > 1000
9 | CCCC(N)Cc1ccccc1 (stereo not given) | > 1000
10 | NC(CO)Cc1ccccc1 (racemic) | 385
11 | NC(CO)CC1CCCCC1 (racemic) | 47
12 | NC(CO)c1ccccc1 (racemic) | 1220
13 | C[C@H](N)Cc1ccccc1 [DEXTROAMPHETAMINE] | 442
14 | N[C@H](CO)Cc1ccccc1 [L-PHENYLALANINOL] | 664
15 | C[C@@H](N)Cc1ccccc1 [LEVAMFETAMINE] | 1380

Reference: ChEMBL document CHEMBL1121959, “Probes of the active site of norepinephrine N-methyltransferase: effect of hydrophobic and hydrophilic interactions on side-chain binding of amphetamine and alpha-methylbenzylamine” (J Med Chem, 1982)
